Publication PMC4850449, “Bufexamac ameliorates LPS-induced acute lung injury in mice by targeting LTA4H” (Scientific Reports, 2016)

Target: T1, LTA4H (leukotriene A4 hydrolase) (Homo sapiens, UniProt P09960)
T1 sequence (P09960 2-611): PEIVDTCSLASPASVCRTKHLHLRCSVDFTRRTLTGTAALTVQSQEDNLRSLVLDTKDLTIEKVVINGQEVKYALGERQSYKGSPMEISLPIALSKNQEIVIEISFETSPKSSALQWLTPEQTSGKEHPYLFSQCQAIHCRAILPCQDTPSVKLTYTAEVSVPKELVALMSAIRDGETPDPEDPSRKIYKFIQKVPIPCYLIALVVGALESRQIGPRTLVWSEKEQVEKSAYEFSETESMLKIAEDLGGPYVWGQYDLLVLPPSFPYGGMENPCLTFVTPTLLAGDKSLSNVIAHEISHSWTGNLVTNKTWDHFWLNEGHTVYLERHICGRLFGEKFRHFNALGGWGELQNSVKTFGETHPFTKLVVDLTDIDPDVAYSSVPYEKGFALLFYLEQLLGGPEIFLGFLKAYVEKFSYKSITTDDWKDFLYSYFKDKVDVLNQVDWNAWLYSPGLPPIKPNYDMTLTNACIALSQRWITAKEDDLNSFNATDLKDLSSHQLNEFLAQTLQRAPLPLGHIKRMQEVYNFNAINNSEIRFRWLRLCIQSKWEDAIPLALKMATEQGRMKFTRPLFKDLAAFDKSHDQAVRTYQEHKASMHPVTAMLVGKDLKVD
Assay: X-ray co-crystal structure ([…] Å); purified enzyme inhibition (epoxide hydrolase IC50 […], aminopeptidase IC50 […])
Format: biochemical

IC50: 11.6 µM
Structure (SMILES): CCCCOc1ccc(CC(=O)NO)cc1 [Bufexamac]
